Laboratory results as given in US20230183218A1, “CONDENSED SUBSTITUTED HYDROPYRROLES AS ANTAGONISTS OF THE MUSCARINIC ACETYLCHOLINE RECEPTOR M4” (Vanderbilt University, priority 2020, published 2023).
pIC50: −log10 of the molar value.

What was measured:
Human M4 = molecular target: T1, Human M4 (Homo sapiens, UniProt P08173); experiment: mAChR M4 cell-based functional assay (calcium flux, antagonist mode vs EC80 acetylcholine), human M4/Gqi5/CHO-K1 cells; conditions: for remaining activity at 30 µM: CHO-K1, % ACh maximum at 30 μM, human M4, read-out: Human M4 Emin (%); for pIC50: decrease of response elicited by EC80 acetylcholine, human M4/Gqi5 CHO-K1 cells
T1 construct: expressed in transfected cells; host or cells: CHO-K1 (ATCC), stably co-expressing chimeric G protein Gqi5
T1 sequence (P08173 1-479): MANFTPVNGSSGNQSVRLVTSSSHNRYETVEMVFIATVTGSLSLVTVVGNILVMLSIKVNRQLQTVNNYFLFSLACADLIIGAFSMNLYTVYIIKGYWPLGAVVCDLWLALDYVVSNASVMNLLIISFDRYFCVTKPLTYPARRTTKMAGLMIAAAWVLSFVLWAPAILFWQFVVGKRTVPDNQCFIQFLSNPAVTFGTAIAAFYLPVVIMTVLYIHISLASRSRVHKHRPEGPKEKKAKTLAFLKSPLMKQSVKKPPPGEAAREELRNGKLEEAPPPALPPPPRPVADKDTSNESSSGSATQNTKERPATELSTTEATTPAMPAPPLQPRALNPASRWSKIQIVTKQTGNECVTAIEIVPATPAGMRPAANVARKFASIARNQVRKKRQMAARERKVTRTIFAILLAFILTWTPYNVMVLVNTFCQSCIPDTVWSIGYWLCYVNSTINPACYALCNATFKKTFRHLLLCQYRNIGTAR
In short: (§1)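 CHO-K1 cells stably expressing human or rat M4 with Gqi5, Fluo-4 loaded; calcium measured by fluorescence ratio on FDSS. Compound added, then EC20 acetylcholine at 143 s and EC80 at 268 s; IC50 from decrease of EC80 response, four-parameter logistic fit.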

Rat M4 = molecular target: T2, Rat M4 (Rattus norvegicus, UniProt P08485); experiment: mAChR M4 cell-based functional assay (calcium flux, antagonist mode vs EC80 acetylcholine), rat M4/Gqi5/CHO-K1 cells; conditions: for remaining activity at 30 µM: CHO-K1, % ACh maximum at 30 μM, rat M4, read-out: Rat M4 Emin (%); for pIC50: decrease of response elicited by EC80 acetylcholine, rat M4/Gqi5 CHO-K1 cells
T2 construct: expressed in transfected cells; host or cells: CHO-K1 (ATCC), stably co-expressing chimeric G protein Gqi5
T2 sequence (P08485 1-478): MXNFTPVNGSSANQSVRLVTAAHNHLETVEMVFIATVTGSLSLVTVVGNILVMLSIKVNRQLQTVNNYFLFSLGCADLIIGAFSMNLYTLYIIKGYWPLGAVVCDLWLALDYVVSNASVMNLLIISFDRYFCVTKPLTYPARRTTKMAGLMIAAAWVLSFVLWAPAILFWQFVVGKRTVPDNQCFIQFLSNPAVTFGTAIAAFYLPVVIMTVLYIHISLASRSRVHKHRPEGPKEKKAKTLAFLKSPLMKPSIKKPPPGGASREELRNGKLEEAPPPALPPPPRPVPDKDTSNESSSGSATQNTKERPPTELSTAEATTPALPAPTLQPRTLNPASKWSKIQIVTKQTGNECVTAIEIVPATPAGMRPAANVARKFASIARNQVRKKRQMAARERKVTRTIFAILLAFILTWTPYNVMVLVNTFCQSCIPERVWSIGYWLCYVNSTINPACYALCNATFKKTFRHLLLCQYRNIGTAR
In short: as §1

| SMILES | remaining activity at 30 µM (Human M4) [%] | pIC50 (Human M4) | remaining activity at 30 µM (Rat M4) [%] | pIC50 (Rat M4) |
| --- | --- | --- | --- | --- |
| Cc1cc(Br)cnc1CN1C[C@H]2C[C@H](Nc3ccc(S(=O)(=O)C4CCCCC4)nn3)C[C@H]2C1 [compound 45, (3aR,5s,6aS)-2-((5-bromo-3-methylpyridin-2-yl)methyl)-N-(6-(cyclohexylsulfonyl)pyridazin-3-yl)octahydrocyclopenta[c]pyrrol-5-amine] | 4 | 7.69 | 3 | 6.53 |
| O=S(=O)(c1ccc(N[C@H]2C[C@@H]3CN(CC4(O)CCOCC4)C[C@@H]3C2)nn1)C1CCCCC1 [compound 46, 4-(((3aR,5s,6aS)-5-((6-(cyclohexylsulfonyl)pyridazin-3-yl)amino)hexahydrocyclopenta[c]pyrrol-2(1H)-yl)methyl)tetrahydro-2H-pyran-4-ol] | 9 | 5.91 | 27 | < 5.00 |
| O=S(=O)(c1ccc(N[C@H]2C[C@@H]3CN(Cc4ccc5[nH]ccc5c4)C[C@@H]3C2)nn1)C1CCCCC1 [compound 47, (3aR,5s,6aS)-2-((1H-indol-5-yl)methyl)-N-(6-(cyclohexylsulfonyl)pyridazin-3-yl)octahydrocyclopenta[c]pyrrol-5-amine] | 4 | 6.94 | 9 | 5.80 |
| CC1(C)CC(N2C[C@H]3C[C@H](Nc4ccc(Cl)nn4)C[C@H]3C2)CCO1 (stereo partly drawn) [compound 51, (3aR,5s,6aS)-N-(6-chloropyridazin-3-yl)-2-(2,2-dimethyltetrahydro-2H-pyran-4-yl)octahydrocyclopenta[c]pyrrol-5-amine] | 9 | 5.07 | 38 | < 5.00 |
| CC1(C)CC(N2C[C@H]3C[C@H](Nc4ccc(-c5ccccc5F)nn4)C[C@H]3C2)CCO1 (stereo partly drawn) [compound 52, (3aR,5s,6aS)-2-(2,2-dimethyltetrahydro-2H-pyran-4-yl)-N-(6-(2-fluorophenyl)pyridazin-3-yl)octahydrocyclopenta[c]pyrrol-5-amine] | 3 | 7.92 | 6 | 6.11 |
| CC1(C)CC(N2C[C@H]3C[C@H](Nc4ccc(-c5cccc(F)c5)nn4)C[C@H]3C2)CCO1 (stereo partly drawn) [compound 53, (3aR,5s,6aS)-2-(2,2-dimethyltetrahydro-2H-pyran-4-yl)-N-(6-(3-fluorophenyl)pyridazin-3-yl)octahydrocyclopenta[c]pyrrol-5-amine] | 3 | 8.03 | 5 | 6.53 |
| CC1(C)CC(N2C[C@H]3C[C@H](Nc4ccc(-c5cccnc5)nn4)C[C@H]3C2)CCO1 (stereo partly drawn) [compound 56, (3aR,5s,6aS)-2-(2,2-dimethyltetrahydro-2H-pyran-4-yl)-N-(6-(pyridin-3-yl)pyridazin-3-yl)octahydrocyclopenta[c]pyrrol-5-amine] | 4 | 7.42 | 14 | 5.14 |
| Cc1cnn(C)c1-c1ccc(N[C@H]2C[C@@H]3CN(C4CCOC(C)(C)C4)C[C@@H]3C2)nn1 (stereo partly drawn) [compound 57, (3aR,5s,6aS)-N-(6-(1,4-dimethyl-1H-pyrazol-5-yl)pyridazin-3-yl)-2-(2,2-dimethyltetrahydro-2H-pyran-4-yl)octahydrocyclopenta[c]pyrrol-5-amine] | 2 | 7.54 | 9 | 5.69 |
| CC1(C)CC(N2C[C@H]3C[C@H](Nc4ccc(N5CCC(F)(F)CC5)nn4)C[C@H]3C2)CCO1 (stereo partly drawn) [compound 58, (3aR,5s,6aS)-N-(6-(4,4-difluoropiperidin-1-yl)pyridazin-3-yl)-2-(2,2-dimethyltetrahydro-2H-pyran-4-yl)octahydrocyclopenta[c]pyrrol-5-amine] | 3 | 7.53 | 6 | 6.30 |

Continued by rising pIC50 (Human M4), values first:

| remaining activity at 30 µM (Human M4) [%] | pIC50 (Human M4) | remaining activity at 30 µM (Rat M4) [%] | pIC50 (Rat M4) | SMILES |
| --- | --- | --- | --- | --- |
| 3 | 6.14 | 6 | 5.69 | Cc1cc2c(cc1CN1C[C@H]3C[C@H](Nc4ccc(S(=O)(=O)C5CCCCC5)nn4)C[C@H]3C1)OCO2 [compound 44, (3aR,5s,6aS)-N-(6-(cyclohexylsulfonyl)pyridazin-3-yl)-2-((6-methylbenzo[d][1,3]dioxol-5-yl)methyl)octahydrocyclopenta[c]pyrrol-5-amine] |
| 3 | 6.74 | 9 | 5.34 | O=S(=O)(c1ccc(N[C@H]2C[C@@H]3CN(Cc4ccc5cc[nH]c5c4)C[C@@H]3C2)nn1)C1CCCCC1 [compound 48, (3aR,5s,6aS)-2-((1H-indol-6-yl)methyl)-N-(6-(cyclohexylsulfonyl)pyridazin-3-yl)octahydrocyclopenta[c]pyrrol-5-amine] |
| 5 | 7.12 | 11 | 5.90 | Cc1cccnc1CN1C[C@H]2C[C@H](Nc3ccc(S(=O)(=O)C4CCCCC4)nn3)C[C@H]2C1 [compound 43, (3aR,5s,6aS)-N-(6-(cyclohexylsulfonyl)pyridazin-3-yl)-2-((3-methylpyridin-2-yl)methyl)octahydrocyclopenta[c]pyrrol-5-amine] |
| 4 | 7.12 | 6 | 6.50 | CC(=O)Nc1ccc(-c2ccc(N[C@H]3C[C@@H]4CN(C5CCOC(C)(C)C5)C[C@@H]4C3)nn2)cn1 (stereo partly drawn) [compound 59, N-(5-(6-(((3aR,5s,6aS)-2-(2,2-dimethyltetrahydro-2H-pyran-4-yl)octahydrocyclopenta[c]pyrrol-5-yl)amino)pyridazin-3-yl)pyridin-2-yl)acetamide] |
| 5 | 7.31 | 14 | 5.29 | CC1(C)CC(N2C[C@H]3C[C@H](Nc4ccc(N5CCOCC5)nn4)C[C@H]3C2)CCO1 (stereo partly drawn) [compound 60, (3aR,5s,6aS)-2-(2,2-dimethyltetrahydro-2H-pyran-4-yl)-N-(6-morpholinopyridazin-3-yl)octahydrocyclopenta[c]pyrrol-5-amine] |
| 3 | 7.48 | 5 | 6.27 | CC1(C)CC(N2C[C@H]3C[C@H](Nc4ccc(-c5ccc(F)cc5)nn4)C[C@H]3C2)CCO1 (stereo partly drawn) [compound 54, (3aR,5s,6aS)-2-(2,2-dimethyltetrahydro-2H-pyran-4-yl)-N-(6-(4-fluorophenyl)pyridazin-3-yl)octahydrocyclopenta[c]pyrrol-5-amine] |
| 3 | 7.74 | 4 | 6.89 | CC(C)(C)CCN1C[C@H]2C[C@H](Nc3ccc(S(=O)(=O)c4ccccc4)nn3)C[C@H]2C1 [compound 50, (3aR, 5s,6aS)-2-(3,3-dimethylbutyl)-N-(6-(phenylsulfonyl)pyridazin-3-yl)octahydrocyclopenta[c]pyrrol-5-amine] |
| 3 | 7.87 | 5 | 6.37 | CC1(C)CC(N2C[C@H]3C[C@H](Nc4ccc(-c5cc(F)ccc5F)nn4)C[C@H]3C2)CCO1 (stereo partly drawn) [compound 55, (3aR,5s,6aS)-N-(6-(2,5-difluorophenyl)pyridazin-3-yl)-2-(2,2-dimethyltetrahydro-2H-pyran-4-yl)octahydrocyclopenta[c]pyrrol-5-amine] |
| 3 | 8.24 | 4 | 7.20 | CC(C)(C)CCN1C[C@H]2C[C@H](Nc3ccc(S(=O)(=O)C4CCCCC4)nn3)C[C@H]2C1 [compound 49, (3aR,5s,6aS)-N-(6-(cyclohexylsulfonyl)pyridazin-3-yl)-2-(3,3-dimethylbutyl)octahydrocyclopenta[c]pyrrol-5-amine] |
